Measurements published in PubChem BioAssay AID2060489 (Molecular Pharmacology Branch, DTP, NCI, 2025).

Test system: 922993-354-T-J3-PDC complex spheroids, viability
Assay: Anticancer human tumor 922993-354-T-J3-PDC patient-derived endometrial carcinoma cell line growth inhibition [GQUAD]
Settings: for IC50: curve of first compound; for viability, T/C: stronger effect = lower value; active = viability on the fitted dose curve at most 10% of control; inactive = the rest
Summary of the method: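 Multi-cell-type spheroids of tumor cells with HUVEC and mesenchymal stem cells, treated with drug combinations. Concentrations descend in half-log steps from near clinical Cmax, or from 10 microM where Cmax is unknown; viability read-out.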

[1] = second compound 0.0316 µM, first compound 0.0316 µM
[2] = second compound 0.0316 µM, first compound 0.1 µM
[3] = second compound 0.0316 µM, first compound 0.316 µM
[4] = second compound 0.0316 µM, first compound 1 µM
[5] = second compound 0.0316 µM, first compound 3.16 µM
[6] = second compound 0.0316 µM, first compound 10 µM
[7] = second compound 0.1 µM, first compound 0.0316 µM
[8] = second compound 0.1 µM, first compound 0.1 µM
[9] = second compound 0.1 µM, first compound 0.316 µM
[10] = second compound 0.1 µM, first compound 1 µM
[11] = second compound 0.1 µM, first compound 3.16 µM
[12] = second compound 0.1 µM, first compound 10 µM
[13] = second compound 0.316 µM, first compound 0.0316 µM
[14] = second compound 0.316 µM, first compound 0.1 µM
[15] = second compound 0.316 µM, first compound 0.316 µM
[16] = second compound 0.316 µM, first compound 1 µM
[17] = second compound 0.316 µM, first compound 3.16 µM
[18] = second compound 0.316 µM, first compound 10 µM
[19] = second compound 1 µM, first compound 0.0316 µM
[20] = second compound 1 µM, first compound 0.1 µM
[21] = second compound 1 µM, first compound 0.316 µM
[22] = second compound 1 µM, first compound 1 µM
[23] = second compound 1 µM, first compound 3.16 µM
[24] = second compound 1 µM, first compound 10 µM
[25] = second compound 3.16 µM, first compound 0.0316 µM
[26] = second compound 3.16 µM, first compound 0.1 µM
[27] = second compound 3.16 µM, first compound 0.316 µM
[28] = second compound 3.16 µM, first compound 1 µM
[29] = second compound 3.16 µM, first compound 3.16 µM
[30] = second compound 3.16 µM, first compound 10 µM
[31] = second compound 10 µM, first compound 0.0316 µM
[32] = second compound 10 µM, first compound 0.1 µM
[33] = second compound 10 µM, first compound 0.316 µM
[34] = second compound 10 µM, first compound 1 µM
[35] = second compound 10 µM, first compound 3.16 µM
[36] = second compound 10 µM, first compound 10 µM
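Also: spheroids exposed to compounds for seven days.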
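For viability, T/C in this document: 100% = DMSO vehicle control viability.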

CC1COCCN1c1cc(-c2ccnn2C)c2ccnc(-c3ccn[nH]3)c2n1 (centres undefined) + Cc1cnc(CNC(=O)c2c(=O)c3ccc(N4CCCN(C)CC4)nc3n3c2sc2ccccc23)cn1
active: viability, T/C [24] 6.94% | viability, T/C [29] 8.14% | viability, T/C [30] 0.53% | viability, T/C [35] 0.68% | viability, T/C [36] 0.18%
inactive: viability, T/C [1] 49.1% | viability, T/C [2] 50.3% | viability, T/C [3] 42.2% | viability, T/C [4] 24.7% | viability, T/C [5] 24.3% | viability, T/C [6] 21.9% | viability, T/C [7] 45.4% | viability, T/C [8] 42.9% | viability, T/C [9] 25.3% | viability, T/C [10] 25.7% | viability, T/C [11] 28.9% | viability, T/C [12] 20.7% | viability, T/C [13] 45.5% | viability, T/C [14] 44.4% | viability, T/C [15] 37.2% | viability, T/C [16] 33.5% | viability, T/C [17] 22.9% | viability, T/C [18] 20.9% | viability, T/C [19] 43.7% | viability, T/C [20] 51.7% | viability, T/C [21] 46% | viability, T/C [22] 43.8% | viability, T/C [23] 22.9% | viability, T/C [25] 50.1% | viability, T/C [26] 43.8% | viability, T/C [27] 46.6% | viability, T/C [28] 36.6% | viability, T/C [31] 51.9% | viability, T/C [32] 42% | viability, T/C [33] 46.3% | viability, T/C [34] 22.2%
< 31.6 nM: IC50 (second compound 0.0316 µM) | IC50 (second compound 0.1 µM) | IC50 (second compound 0.316 µM) | IC50 (second compound 1 µM) | IC50 (second compound 3.16 µM) | IC50 (second compound 10 µM)

O=C(NO)c1cnc(N2CCN(S(=O)(=O)c3ccc4ccccc4c3)CC2)nc1 + Cc1[nH]c2ccc(F)cc2c1-c1nc2c3cccnc3c3ncccc3c2[nH]1
870 nM: IC50 (second compound 1 µM)
active: viability, T/C [5] 3.09% | viability, T/C [6] 0.42% | viability, T/C [12] 0.48% | viability, T/C [17] 4.7% | viability, T/C [18] 0.61% | viability, T/C [24] 0.62% | viability, T/C [30] 0.64% | viability, T/C [36] 0.76%
542 nM: IC50 (second compound 0.1 µM)
921 nM: IC50 (second compound 10 µM)
1120 nM: IC50 (second compound 3.16 µM)
inactive: viability, T/C [1] 116% | viability, T/C [2] 89.1% | viability, T/C [3] 52.9% | viability, T/C [4] 34.6% | viability, T/C [7] 114% | viability, T/C [8] 89.5% | viability, T/C [9] 65% | viability, T/C [10] 38.6% | viability, T/C [11] 3.39% | viability, T/C [13] 93.2% | viability, T/C [14] 95.9% | viability, T/C [15] 72.2% | viability, T/C [16] 46.6% | viability, T/C [19] 84.2% | viability, T/C [20] 90.3% | viability, T/C [21] 68.7% | viability, T/C [22] 51.2% | viability, T/C [23] 6.64% | viability, T/C [25] 75.7% | viability, T/C [26] 86.5% | viability, T/C [27] 91.1% | viability, T/C [28] 51.4% | viability, T/C [29] 15% | viability, T/C [31] 82.8% | viability, T/C [32] 101% | viability, T/C [33] 74.7% | viability, T/C [34] 48.2% | viability, T/C [35] 14.7%
409 nM: IC50 (second compound 0.0316 µM)
772 nM: IC50 (second compound 0.316 µM)
